Measurements published in patent US11723890B2, “Methods of treatment using an mTORC1 modulator” (Navitor Pharmaceuticals, Inc., priority 2019, dated 2023).
“Also recorded” adds a separate entry of the source. Marks after values point to notes of the source that are not given here.

Key:
cynomolgus monkey = test: Cardiovascular study in cynomolgus monkeys; format: in vivo
[1] = test system: nonhuman primate model of anxiolytic/depressive behavioral responses; test: Nonhuman primate model of anxiolytic/depressive behavioral responses; format: in vivo; settings: versus ketamine
Description: (§1) Compound A [(S)-2-amino-5,5-difluoro-4,4-dimethylpentanoic acid] is a novel, orally bioavailable, specific, small molecule that activates mTORC1 pathway signaling in the brain, including those centers responsible for mood.

mTORC1 = mTORC1 downstream signaling and synaptic changes in medial pre-frontal cortex of rats; format: in vivo, rat; settings: layer V pyramidal neurons
Description: as §1

[2] = test system: N-methyl-D-aspartate (NMDA) receptor; test: Nonclinical NMDA receptor modulation / antagonist activity; settings: nonclinical studies
Description: as §1
NMDA antagonists, in particular ketamine, are associated with mental status changes that have similarity to psychotic or dissociative symptoms seen in psychiatric disorders.

[3] = Nonclinical studies, observation of seizures; format: in vivo
[4] = test system: CSF neurotransmitter metabolites; test: Example 2: CSF neurotransmitter metabolomics after a single dose; format: in vivo, human; settings: healthy males; for 1-methyl-4-imidazoleacetate, CSF, ratio relative to baseline / Carboxyethyl-GABA, CSF, ratio relative to baseline / Homovanillate (HVA), CSF, ratio relative to baseline / Hydroxyindoleacetic acid (HIAA), CSF, ratio relative to baseline: single 2400 mg, n = 12
Description: Exploratory Objective(s): The exploratory objectives of this study were as follows using CSF and plasma samples collected over the same time frame as the PK samples: • conducted unbiased metabolomic analysis using validated methods as described: https://www.metabolon.com/what-we-do/our-technology. • conducted unbiased proteomic analysis using validated methods as described: https://www.biognosys.com/technology. Study Endpoints:
This study was a Phase 1, double-blind, placebo-controlled, single-dose study to evaluate the PK, metabolomic, and proteomic profiles of compound A in plasma and CSF in healthy male subjects between the ages of 18 and 55 years. […] Once eligibility criteria were met and the ICF had been signed, subjects were admitted to the CRU on Day-1. On Day 1, intradural and venous catheters were inserted and subjects were randomly assigned to double-blind treatment with a single oral 2400 mg dose of compound A or placebo. The catheter insertion site was assessed on regular basis for early signs of local infection or CSF leakage. Time-matched CSF and blood samples were then collected for 36 hours, after which, the intradural and venous catheters were removed. See FIG. 7 for the study flow chart.
Pharmacokinetic, Metabolomic, and Proteomic Variables: Blood and CSF samples for the PK, metabolomics, and proteomic analysis of compound A were collected at various time points and were processed and analyzed by a validated method for determining concentrations of compound A.
Low CSF concentrations of HVA have been reported to be a marker of depressive symptoms. […] Values represent the ratio of metabolite concentrations for each time point relative to baseline. An increase from baseline is indicated with a single asterisk (*).

## CC(C)(C[C@H](N)C(=O)O)C(F)F [Compound A, (S)-2-amino-5,5-difluoro-4,4-dimethylpentanoic acid]
Cynomolgus monkey; single oral dose ≥160 mg/kg
  cardiovascular findings at ≥160 mg/kg: decreased heart rate and body temperature
Cynomolgus monkey; single oral dose ≥500 mg/kg
  cardiovascular finding at higher dosage levels: Increased blood pressure
[1]
  pharmacological activity: comparable to that of ketamine
mTORC1
  mTORC1 downstream signaling, synaptic protein expression, synaptic arborization: increase in mTORC1 downstream signaling, synaptic protein expression (e.g., GluR1 and synapsin), and synaptic arborization
[2]
  NMDA receptor modulation / antagonist activity: not associated with N-methyl-D-aspartate (NMDA) receptor modulation; also recorded: did not demonstrate NMDA antagonist activity
[3]
  seizures: seizures have not been observed
[4]; CSF, single oral 2400 mg
  onset of effect on key neurotransmitter turnover (GABA, histamine, serotonin, dopamine): within two hours of treatment
[4]; CSF, single oral 2400 mg, post-dose
  duration of effect on key neurotransmitter turnover: 36 h
[4]; 1 h post-dose
  1-methyl-4-imidazoleacetate, CSF, ratio relative to baseline: 1.08
  Carboxyethyl-GABA, CSF, ratio relative to baseline: 1.12
  Homovanillate (HVA), CSF, ratio relative to baseline: 1.08
  Hydroxyindoleacetic acid (HIAA), CSF, ratio relative to baseline: 1.09
[4]; 2 h post-dose
  1-methyl-4-imidazoleacetate, CSF, ratio relative to baseline: 1.35*
  Carboxyethyl-GABA, CSF, ratio relative to baseline: 1.29*
  Homovanillate (HVA), CSF, ratio relative to baseline: 1.41*
  Hydroxyindoleacetic acid (HIAA), CSF, ratio relative to baseline: 1.28*
[4]; 4 h post-dose
  1-methyl-4-imidazoleacetate, CSF, ratio relative to baseline: 1.52*
  Carboxyethyl-GABA, CSF, ratio relative to baseline: 1.38*
  Homovanillate (HVA), CSF, ratio relative to baseline: 1.56*
  Hydroxyindoleacetic acid (HIAA), CSF, ratio relative to baseline: 1.1*
[4]; 8 h post-dose
  1-methyl-4-imidazoleacetate, CSF, ratio relative to baseline: 1.47*
  Carboxyethyl-GABA, CSF, ratio relative to baseline: 1.38*
  Homovanillate (HVA), CSF, ratio relative to baseline: 1.3*
  Hydroxyindoleacetic acid (HIAA), CSF, ratio relative to baseline: 1.22
[4]; 12 h post-dose
  1-methyl-4-imidazoleacetate, CSF, ratio relative to baseline: 1.56*
  Carboxyethyl-GABA, CSF, ratio relative to baseline: 1.4*
  Homovanillate (HVA), CSF, ratio relative to baseline: 1.46*
  Hydroxyindoleacetic acid (HIAA), CSF, ratio relative to baseline: 1.21
[4]; 24 h post-dose
  1-methyl-4-imidazoleacetate, CSF, ratio relative to baseline: 1.33*
  Carboxyethyl-GABA, CSF, ratio relative to baseline: 1.24*
  Homovanillate (HVA), CSF, ratio relative to baseline: 1.34*
  Hydroxyindoleacetic acid (HIAA), CSF, ratio relative to baseline: 1.21*
[4]; 36 h post-dose
  1-methyl-4-imidazoleacetate, CSF, ratio relative to baseline: 1.75*
  Carboxyethyl-GABA, CSF, ratio relative to baseline: 1.22*
  Homovanillate (HVA), CSF, ratio relative to baseline: 1.41*
  Hydroxyindoleacetic acid (HIAA), CSF, ratio relative to baseline: 1.28*
